From paper PMC8148022 (Cancer letters, 2018) come the findings set out here.

For this experiment, the target named is T1, breast cancer resistance protein (BCRP) (Homo sapiens, UniProt Q9UNQ0).
T1 sequence (Q9UNQ0 1-655): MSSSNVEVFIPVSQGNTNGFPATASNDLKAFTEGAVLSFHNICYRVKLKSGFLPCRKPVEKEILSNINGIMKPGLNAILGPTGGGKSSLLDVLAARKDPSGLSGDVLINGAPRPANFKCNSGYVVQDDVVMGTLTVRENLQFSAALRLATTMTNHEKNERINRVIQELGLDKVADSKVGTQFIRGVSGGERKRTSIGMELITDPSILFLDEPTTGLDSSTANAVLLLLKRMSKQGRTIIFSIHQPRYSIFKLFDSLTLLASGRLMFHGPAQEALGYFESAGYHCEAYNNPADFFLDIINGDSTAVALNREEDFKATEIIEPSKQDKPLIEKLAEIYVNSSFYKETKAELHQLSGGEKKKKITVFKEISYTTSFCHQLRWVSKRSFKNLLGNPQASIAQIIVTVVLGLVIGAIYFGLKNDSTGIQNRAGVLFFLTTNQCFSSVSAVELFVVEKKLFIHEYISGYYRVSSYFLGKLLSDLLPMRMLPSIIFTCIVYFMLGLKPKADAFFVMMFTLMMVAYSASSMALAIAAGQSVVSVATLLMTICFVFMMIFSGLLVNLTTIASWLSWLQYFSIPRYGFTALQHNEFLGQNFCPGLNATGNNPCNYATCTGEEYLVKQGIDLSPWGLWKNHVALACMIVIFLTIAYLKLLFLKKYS
Briefly: biochemical.

Each structure is given as a SMILES string.

The term EC50 denotes the concentration needed to bring the measured effect to its halfway point. A high value points to a less potent agent. The molecule `CNC(=O)c1cc(Oc2ccc(NC(=O)Nc3ccc(Cl)c(C(F)(F)F)c3)c(F)c2)ccn1` [regorafenib] came in with an EC50 of 3.59 ± 0.42 µM.
